Assay results as given in ChEMBL document CHEMBL1201862, “PubChem BioAssay data set” (2004).
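Five compound concentrations were applied to cells in 96-well plates for 48 hours; endpoints were derived by simple linear interpolation of the resulting dose-response curve. GI50 = concentration required for 50% inhibition of growth.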 Activity calls are given as the source filed them. Cut-off read from the data, not from the text of the source: active = GI50 up to about 1.1 µM and inactive = higher.

Tests used:
Experiment in all cases: growth of human tumour cells (NCI), 48 h
786-0 = test system: 786-0
A498 = test system: A498
A549 = test system: A549
ACHN = test system: ACHN
BT-549 = test system: BT-549
CAKI-1 = test system: CAKI-1
CCRF-CEM = test system: CCRF-CEM
COLO 205 = test system: COLO 205
DU-145 = test system: DU-145
EKVX = test system: EKVX
HCC 2998 = test system: HCC 2998
HCT-116 = test system: HCT-116
HCT-15 = test system: HCT-15
HL-60 = test system: HL-60
HOP-62 = test system: HOP-62
HOP-92 = test system: HOP-92
HT-29 = test system: HT-29
Hs-578T = test system: Hs-578T
IGROV-1 = test system: IGROV-1
K562 = test system: K562
KM12 = test system: KM12
LOX IMVI = test system: LOX IMVI
M14 = test system: M14
MCF7 = test system: MCF7
MDA-MB-231 = test system: MDA-MB-231
MDA-MB-435 = test system: MDA-MB-435
MDA-N = test system: MDA-N
MOLT-4 = test system: MOLT-4
Malme-3M = test system: Malme-3M
NCI-H226 = test system: NCI-H226
NCI-H23 = test system: NCI-H23
NCI-H460 = test system: NCI-H460
NCI-H522 = test system: NCI-H522
NCI/ADR-RES = test system: NCI/ADR-RES
OVCAR-3 = test system: OVCAR-3
OVCAR-4 = test system: OVCAR-4
OVCAR-8 = test system: OVCAR-8
PC-3 = test system: PC-3
RXF 393 = test system: RXF 393
SF-268 = test system: SF-268
SF-295 = test system: SF-295
SF-539 = test system: SF-539
SK-MEL-28 = test system: SK-MEL-28
SK-MEL-2 = test system: SK-MEL-2
SK-MEL-5 = test system: SK-MEL-5
SN12C = test system: SN12C
SNB-19 = test system: SNB-19
SNB-75 = test system: SNB-75
SR = test system: SR
SW-620 = test system: SW-620
T47D = test system: T47D
TK-10 = test system: TK-10
U-251 = test system: U-251
UACC-257 = test system: UACC-257
UACC-62 = test system: UACC-62
UO-31 = test system: UO-31
OVCAR-5 = test system: OVCAR-5
RPMI-8226 = test system: RPMI-8226
SK-OV-3 = test system: SK-OV-3

Measured: GI50

CC(=O)Oc1ccn2nc(C)c(Br)c2c1Br
16.9 µM: HCT-15
inactive: 786-0 36.5 µM | A498 25.1 µM | A549 23.1 µM | ACHN 17.6 µM | BT-549 26 µM | CAKI-1 2.88 µM | CCRF-CEM 21.6 µM | COLO 205 19.4 µM | DU-145 59.4 µM | EKVX 29 µM | HCC 2998 20.7 µM | HCT-116 23 µM | HL-60 29 µM | HOP-62 44.4 µM | HOP-92 19.4 µM | HT-29 20.7 µM | Hs-578T 29.6 µM | IGROV-1 32.5 µM | K562 24.5 µM | KM12 33.7 µM | LOX IMVI 18.4 µM | M14 18.9 µM | MCF7 17.8 µM | MDA-MB-231 23 µM | MDA-MB-435 17.9 µM | MDA-N 17.6 µM | MOLT-4 15.3 µM | Malme-3M 22.4 µM | NCI-H226 > 43.9 µM | NCI-H23 18.3 µM | NCI-H460 21.5 µM | NCI-H522 17.6 µM | NCI/ADR-RES 47.6 µM | OVCAR-3 17.6 µM | OVCAR-4 16.8 µM | OVCAR-8 29.4 µM | PC-3 18.4 µM | RXF 393 > 10 µM | SF-268 25.5 µM | SF-295 30.5 µM | SF-539 21.2 µM | SK-MEL-28 21.4 µM | SK-MEL-2 27.5 µM | SK-MEL-5 17.5 µM | SN12C 27.7 µM | SNB-19 49.9 µM | SNB-75 22.1 µM | SR 40.9 µM | SW-620 30.5 µM | T47D 29.3 µM | TK-10 45 µM | U-251 35.1 µM | UACC-257 16.7 µM | UACC-62 17.7 µM | UO-31 4.6 µM

COc1cc2c(cc1O)NC(=S)[C@@H]1CCCN1C2=O
> 100 µM: HCT-15
inactive: 786-0 > 100 µM | A498 > 100 µM | A549 > 100 µM | ACHN > 100 µM | BT-549 > 100 µM | CAKI-1 > 100 µM | CCRF-CEM 76.6 µM | COLO 205 > 100 µM | DU-145 > 100 µM | EKVX > 100 µM | HCC 2998 > 100 µM | HCT-116 > 100 µM | HOP-62 > 100 µM | HOP-92 > 100 µM | HT-29 > 100 µM | Hs-578T > 100 µM | IGROV-1 > 100 µM | K562 > 100 µM | KM12 > 100 µM | LOX IMVI > 100 µM | M14 > 100 µM | MCF7 > 100 µM | MDA-MB-231 > 100 µM | MDA-MB-435 > 100 µM | MDA-N > 100 µM | MOLT-4 > 100 µM | Malme-3M > 100 µM | NCI-H226 > 100 µM | NCI-H23 > 100 µM | NCI-H460 > 100 µM | NCI-H522 > 100 µM | NCI/ADR-RES > 100 µM | OVCAR-3 > 100 µM | OVCAR-4 > 100 µM | OVCAR-5 > 100 µM | OVCAR-8 > 100 µM | PC-3 > 100 µM | RPMI-8226 > 100 µM | RXF 393 > 100 µM | SF-268 > 100 µM | SF-295 97.1 µM | SF-539 > 100 µM | SK-MEL-28 > 100 µM | SK-MEL-2 > 100 µM | SK-MEL-5 > 100 µM | SK-OV-3 > 100 µM | SN12C > 100 µM | SNB-19 > 100 µM | SNB-75 > 100 µM | SR 50.1 µM | SW-620 > 100 µM | T47D > 100 µM | TK-10 > 100 µM | U-251 > 100 µM | UACC-257 > 100 µM | UACC-62 > 100 µM | UO-31 > 100 µM
